Results published in patent publication US20240058344A1, “METHODS OF TREATING NEURODEGENERATIVE DISORDERS AND STAT3-LINKED CANCERS USING SUPPRESSORS OF ELECTRON LEAK” (Cornell University, priority 2020, published 2024).

Legend:
[1] = Solubility in aqueous solutions; type: physicochemical
[2] = system: STAT3; assay: Phospho-STAT3 and total STAT3 in primary astrocytes (Western blotting); type: cell-based, mice; settings: for Phosphorylated STAT3 levels / Total STAT3 levels: S3QEL2 60 μM
Method: (§1) (FIGS. 11A-11B) Astrocytes isolated from P2-P3 mice were treated with oligomeric Aβ (3 μM) and S3QEL2 (S3, 20 μM) or vehicle (V) for 24 h and analyzed by qRT-PCR (FIG. 11A) or Western blotting (B) and normalized to vehicle controls. (FIG. 11B) Phospho-STAT3 levels were normalized to total STAT3 per sample. n=3 wells per condition; *p<0.05, **p<0.01, ***p<0.001, ANOVA with Dunnett's test.
(FIGS. 12A-12B) Astrocytes isolated from P2-P3 mice were treated with oligomeric Aβ (3 μM) (A) or A1 cocktail consisting of 30 ng/mL TNF-α, 3 ng/mL IL-1α, and 400 ng/mL Clq (B), and S3QEL2 (S3, 60 μM) or vehicle (Con) for indicated durations and analyzed by Western blotting. Phospho-STAT3 levels were normalized to total STAT3 per sample, and total STAT3 levels were normalized to γ-tubulin levels per sample. n≥3 wells per condition; *p<0.05, **p<0.01, ***p<0.001, one-way ANOVA with Tukey's multiple comparisons test.
(FIG. 17A) Astrocytes isolated from P2-P3 mice were treated with A1 cocktail consisting of 30 ng/ml TNF-α, 3 ng/ml IL-1α, and 400 ng/ml Clq, and S3QEL1.2 (3 μM) or vehicle for approximately 6 h and analyzed by Western blotting. Phospho-STAT3 levels were normalized to total STAT3 per sample. n=6 wells per condition. **p<0.01, ***p<0.001, one-way ANOVA with Dunnett's multiple comparisons test. (FIG. 17B) Astrocytes isolated from P2-P3 mice were treated with A1 cocktail consisting of 30 ng/ml TNF-α, 3 ng/ml IL-1α, and 400 ng/ml Clq for 24 h, and analyzed for levels of released H2O2 using Amplex UltraRed, a fluorogenic substrate that is a highly sensitive indicator of H2O2, in the presence of horseradish peroxidase and superoxide dismutase. n=6 wells per condition. *p=0.01, Student's t test. (FIG. 17C) Astrocytes isolated from P2-P3 mice were treated with vehicle or 3 ng/ml IL-1α and either S3QEL2 (20 μM), S3QEL1.2 (1 μM), or vehicle for approximately 24 h, and analyzed for levels of released H2O2 using Amplex UltraRed. n=6 wells per condition. *p<0.05, **p<0.01, ***p<0.001, two-way ANOVA with Bonferroni's multiple comparisons test.
Similar to oligomeric Aβ, A1 cocktail (which is a mixture of TNF-α, IL-1α, and Clq) induced astrocytic reactivity that is associated with synaptic damage and neurodegeneration.
Given that this compound has a different chemical structure, these findings indicate that S3QELs suppress astrocytic reactivity and neuroinflammatory responses through modulation of complex III ROS rather than modulation of other off-target or nonspecific mechanisms.

[3] = system: U-87 MG glioblastoma cells; assay: Glioblastoma cell proliferation, DAPI staining of cell nuclei, U-87 MG; type: cell-based, human; settings: 72 h
Method: (§2) Cell density was measured using DAPI staining of cell nuclei and quantification of fluorescence intensities. n=3 wells per condition. […] STAT3 levels were measured by Western blotting. STAT3 levels were normalized to γ-tubulin levels within each cell lysate and expressed as fold change relative to U-87MG cells. n=4 wells per condition. **p<0.01, ***p<0.001 vs. 0 μM or U-87MG, one-way ANOVA with Dunnett's multiple comparisons test.
(§3) Briefly, two complementary methods were used to assess cell proliferation, including the CellTiter-Glo assay and DAPI staining of cell nuclei. The effects of S3QEL2 treatment on A-172, T98G, and U-87 MG cells were measured at different drug concentrations (0, 6, 20, 30, 40, or 50 μM) and time-points after treatment (72 or 96 hours). S3QEL2 inhibits proliferation of A-172 and T98G glioblastoma cells in a highly dose-dependent manner and these effects are similar at different time-points (FIG. 15A-B).

[4] = system: A-172 glioblastoma cells; assay: Glioblastoma cell proliferation, DAPI staining of cell nuclei, A-172; type: cell-based, human; settings: 72 h
Method: as §2, §3

[5] = system: isolated microglia; assay: Markers of reactivity and immune signaling in isolated microglia (qRT-PCR); type: cell-based, mice; settings: S3QEL2 20 μM, 24 h
Method: Microglia isolated from P2-P3 mice were treated with lipopolysaccharide (LPS, 100 ng/ml) or oligomeric Aβ (3 μM), and S3QEL2 (20 μM) or vehicle for 24 h and analyzed by qRT-PCR. n=3 wells per condition.

[6] = system: primary astrocytes; assay: Markers of reactivity in primary astrocytes treated with oligomeric Aβ (qRT-PCR); type: cell-based, mice; settings: oligomeric Aβ 3 μM, S3QEL2 20 μM, 24 h
Method: as §1
To further assess if S3QELs alter glial functions, the effects of S3QEL2 on isolated astrocytes and microglia was tested. […] These markers included genes associated with neurodegeneration and aging, such as complement component C3, which promotes synapse elimination in disease, and phosphorylated STAT3, which is considered a central regulator of astrocytic reactivity.

[7] = system: hTauP301S mice; assay: Survival of hTauP301S mice on S3QEL2-formulated chow; type: in vivo; settings: long-term chow administration from 4-5 months of age
Text: Nontransgenic (NTG) and transgenic hTauP301S male mice received oral dosing with S3QEL2-formulated chow or control chow (Control) for indicated durations starting at 4-5 months of age. n=14-15 mice per genotype and treatment, pairwise Mantel-Cox test.
Survival rates in wild-type and transgenic hTauP301S mice during chronic treatment with control or S3QEL2-containing chow was also monitored.

[8] = system: U-87 MG glioblastoma cells; assay: Glioblastoma cell proliferation, CellTiter-Glo luciferase assay, U-87 MG; type: cell-based, human; settings: 0-50 μM, 72 and 96 h
Method: (§4) Relative cell density was measured using the CellTiter-Glo luciferase assay. n=3 wells per condition. *p<0.05, **p<0.01, ***p<0.001 vs. 0 μM, one-way ANOVA with Dunnett's multiple comparisons test.
(§5) The effect of S3QELs on proliferation of glial tumor cells that have different oncogenic mutations was assessed. In particular, proliferation rates were assessed in three different human immortalized glioblastoma cells lines (A-172, T98G, and U-87 MG). A-172 and U-87 lines have mutations in PTEN, a phosphatase that indirectly regulates PI3K activities, whereas T98G cell line has a mutation in p53, a well-known tumor suppressor gene. STAT3 can affect PI3K signaling and p53 transcription and could thereby promote glioblastoma cell proliferation. Whether S3QELs reduce glioblastoma cell proliferation and aberrant intracellular signaling was tested.
as §3

[9] = system: T98G glioblastoma cells; assay: Glioblastoma cell proliferation, CellTiter-Glo luciferase assay, T98G; type: cell-based, human; settings: 0-50 μM, 72 and 96 h
Method: as §4, §5, §3

[10] = A1 cocktail (TNF-α, IL-1α, Clq)

Compound: CCCN(CCC)c1ncnc2c1cnn2-c1ccc(C)c(C)c1 [S3QEL2]
- Solubility in aqueous solutions [1]: limited solubility in aqueous solutions
- Phosphorylated STAT3 levels [2, 10]: reduced
- Total STAT3 levels [2, 10]: reduced
- Phospho-STAT3 levels normalized to total STAT3 ([2]; oligomeric Aβ 3 μM, S3QEL2 20 μM, 24 h): reduced
- Phosphorylated STAT3 levels ([2]; oligomeric Aβ 3 μM): reduced
- Total STAT3 levels ([2]; oligomeric Aβ 3 μM): reduced
- Cell proliferation (cell density, DAPI staining) [3]: but not U-87 MG cells
- Cell proliferation (cell density, DAPI staining) [4]: reduces proliferation
- Markers of reactivity and immune signaling in microglia ([5]; LPS 100 ng/ml): did not affect markers of reactivity and immune signaling
- Markers of reactivity and immune signaling in microglia ([5]; oligomeric Aβ 3 μM): did not affect markers of reactivity and immune signaling
- Markers of reactivity (genes incl. complement component C3) [6]: reduced markers of reactivity
- Early mortality associated with tauopathy [7]: significantly reduced early mortality
- Cell proliferation (relative cell density, CellTiter-Glo) [8]: minimal effect
- Cell proliferation (relative cell density, CellTiter-Glo) [9]: dose-dependently inhibited cell proliferation
